Activity calls are given as the source filed them. The calls are words filed in the database; no cut-off is given here.
Columns and labels:
U-87 MG = assay: Cytotoxicity against human U-87 MG cells at 10 to 400 uM incubated for 24 hrs by CCK-8 assay; assay type: functional, cell-based; details: U-87MG ATCC, dose 10-400 µM
[1] = Biodistribution in Balb/c mouse xenografted with human U-87 MG cells by measuring ratio of boron concentration in tumor to brain at 0.04 mmol,iv administrated for 1 hr by ICP-MS analysis; assay type: ADME, organism-based; details: in vivo
[2] = Biodistribution in Balb/c mouse xenografted with human U-87 MG cells by measuring ratio of boron concentration in tumor to liver at 0.04 mmol,iv administrated for 1 hr by ICP-MS analysis; assay type: ADME, organism-based; details: in vivo
[3] = Biodistribution in Balb/c mouse xenografted with human U-87 MG cells by measuring ratio of boron concentration in tumor to kidney at 0.04 mmol,iv administrated for 1 hr by ICP-MS analysis; assay type: ADME, organism-based; details: in vivo
[4] = Biodistribution in Balb/c mouse xenografted with human U-87 MG cells by measuring ratio of boron concentration in tumor to muscle at 0.04 mmol,iv administrated for 1 hr by ICP-MS analysis; assay type: ADME, organism-based; details: in vivo

Ratio [1]: 13.4
Ratio [2]: 2.5
Ratio [3]: 0.43
Ratio [4]: 2.41
SMILES: N=C(N)NCCC[C@@H]1NC(=O)[C@H](CCCCN)NC(=O)[C@@H](Cc2ccc(B(O)O)cc2)NC(=O)[C@H](CC(=O)O)NC(=O)CNC1=O
Activity (U-87 MG): inactive

— ChEMBL document CHEMBL5344471, “64Cu-Labeled Boron-Containing Cyclic RGD Peptides for BNCT and PET Imaging” (ACS Med Chem Lett, 2024)
